Legend:
Test in all cases: relative viability (nuclei count vs DMSO), 5 days (fraction); higher = more cells survive
CAP-232 = compound: C[C@H]([C@@H](C(=O)N)NC(=O)[C@@H]1CSSC[C@@H](C(=O)N[C@H](C(=O)N[C@@H](C(=O)N[C@H](C(=O)N1)CCCCN)CC2=CNC3=CC=CC=C32)CC4=CC=C(C=C4)O)NC(=O)[C@@H](CC5=CC=CC=C5)N)O [CAP-232]
How it was run: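 Viability here means nuclei in treated wells divided by nuclei in vehicle wells, reported as the median across plates. Only plates with control CV below 25% and at least one doubling passed. Lung cancer cell lines in 1536-well plates were exposed to five √10-spaced library-drug doses for 5 days and counted from 4× Hoechst images in MetaXpress.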

CAP-232 + Trametinib = compound: C[C@H]([C@@H](C(=O)N)NC(=O)[C@@H]1CSSC[C@@H](C(=O)N[C@H](C(=O)N[C@@H](C(=O)N[C@H](C(=O)N1)CCCCN)CC2=CNC3=CC=CC=C32)CC4=CC=C(C=C4)O)NC(=O)[C@@H](CC5=CC=CC=C5)N)O [CAP-232] + CC(=O)Nc1cccc(-n2c(=O)n(C3CC3)c(=O)c3c(Nc4ccc(I)cc4F)n(C)c(=O)c(C)c32)c1 [Trametinib] (partner 0.02 µM)
How it was run: (§1)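 Lung cancer cell lines in 1536-well plates got either a single drug or a fixed anchor-drug dose together with five library-drug doses (not always all listed) in √10 steps, by pin tool, on the day after seeding. Nuclei were counted after 5 days, and relative viability is the treated-to-vehicle ratio of nuclei counts. Values are medians of duplicate plates.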

CAP-232 + Palbociclib = compound: C[C@H]([C@@H](C(=O)N)NC(=O)[C@@H]1CSSC[C@@H](C(=O)N[C@H](C(=O)N[C@@H](C(=O)N[C@H](C(=O)N1)CCCCN)CC2=CNC3=CC=CC=C32)CC4=CC=C(C=C4)O)NC(=O)[C@@H](CC5=CC=CC=C5)N)O [CAP-232] + CC(=O)c1c(C)c2cnc(Nc3ccc(N4CCNCC4)cn3)nc2n(C2CCCC2)c1=O [Palbociclib] (partner 0.5 µM)
How it was run: as §1

CAP-232 + OSI-027 = compound: C[C@H]([C@@H](C(=O)N)NC(=O)[C@@H]1CSSC[C@@H](C(=O)N[C@H](C(=O)N[C@@H](C(=O)N[C@H](C(=O)N1)CCCCN)CC2=CNC3=CC=CC=C32)CC4=CC=C(C=C4)O)NC(=O)[C@@H](CC5=CC=CC=C5)N)O [CAP-232] + COc1cccc2cc(-c3nc([C@H]4CC[C@H](C(=O)O)CC4)n4ncnc(N)c34)[nH]c12 [OSI-027] (partner 0.5 µM)
How it was run: as §1

CAP-232 + Tozasertib = compound: C[C@H]([C@@H](C(=O)N)NC(=O)[C@@H]1CSSC[C@@H](C(=O)N[C@H](C(=O)N[C@@H](C(=O)N[C@H](C(=O)N1)CCCCN)CC2=CNC3=CC=CC=C32)CC4=CC=C(C=C4)O)NC(=O)[C@@H](CC5=CC=CC=C5)N)O [CAP-232] + Cc1cc(Nc2cc(N3CCN(C)CC3)nc(Sc3ccc(NC(=O)C4CC4)cc3)n2)n[nH]1 [Tozasertib] (partner 0.1 µM)
How it was run: as §1

CAP-232 + AZD7762 = compound: C[C@H]([C@@H](C(=O)N)NC(=O)[C@@H]1CSSC[C@@H](C(=O)N[C@H](C(=O)N[C@@H](C(=O)N[C@H](C(=O)N1)CCCCN)CC2=CNC3=CC=CC=C32)CC4=CC=C(C=C4)O)NC(=O)[C@@H](CC5=CC=CC=C5)N)O [CAP-232] + NC(=O)Nc1cc(-c2cccc(F)c2)sc1C(=O)N[C@H]1CCCNC1 [AZD7762] (partner 0.2 µM)
How it was run: as §1

CAP-232 + Pemetrexed = compound: C[C@H]([C@@H](C(=O)N)NC(=O)[C@@H]1CSSC[C@@H](C(=O)N[C@H](C(=O)N[C@@H](C(=O)N[C@H](C(=O)N1)CCCCN)CC2=CNC3=CC=CC=C32)CC4=CC=C(C=C4)O)NC(=O)[C@@H](CC5=CC=CC=C5)N)O [CAP-232] + Nc1nc2[nH]cc(CCc3ccc(C(=O)N[C@@H](CCC(=O)O)C(=O)O)cc3)c2c(=O)[nH]1 [Pemetrexed] (partner 0.2 µM)
How it was run: as §1

CAP-232 + Decitabine = compound: C[C@H]([C@@H](C(=O)N)NC(=O)[C@@H]1CSSC[C@@H](C(=O)N[C@H](C(=O)N[C@@H](C(=O)N[C@H](C(=O)N1)CCCCN)CC2=CNC3=CC=CC=C32)CC4=CC=C(C=C4)O)NC(=O)[C@@H](CC5=CC=CC=C5)N)O [CAP-232] + Nc1ncn([C@H]2C[C@H](O)[C@@H](CO)O2)c(=O)n1 [Decitabine] (partner 2 µM)
How it was run: as §1

CAP-232 + Vorinostat = compound: C[C@H]([C@@H](C(=O)N)NC(=O)[C@@H]1CSSC[C@@H](C(=O)N[C@H](C(=O)N[C@@H](C(=O)N[C@H](C(=O)N1)CCCCN)CC2=CNC3=CC=CC=C32)CC4=CC=C(C=C4)O)NC(=O)[C@@H](CC5=CC=CC=C5)N)O [CAP-232] + O=C(CCCCCCC(=O)Nc1ccccc1)NO [Vorinostat] (partner 1 µM)
How it was run: as §1

CAP-232 + Olaparib = compound: C[C@H]([C@@H](C(=O)N)NC(=O)[C@@H]1CSSC[C@@H](C(=O)N[C@H](C(=O)N[C@@H](C(=O)N[C@H](C(=O)N1)CCCCN)CC2=CNC3=CC=CC=C32)CC4=CC=C(C=C4)O)NC(=O)[C@@H](CC5=CC=CC=C5)N)O [CAP-232] + O=C(c1cc(Cc2n[nH]c(=O)c3ccccc23)ccc1F)N1CCN(C(=O)C2CC2)CC1 [Olaparib] (partner 8 µM)
How it was run: as §1

Q: How did the relative viability (CAP-232; 0.4 µM) turn out when NCI-H1648 was run?
A: The relative viability was 0.984.

Q: And the relative viability (CAP-232; 1.265 µM)?
A: The relative viability was 0.761.

Q: What about the relative viability (CAP-232; 4 µM) of the same cell line?
A: Its relative viability is 0.914.

Q: And the relative viability (CAP-232; 12.65 µM)?
A: The relative viability was 0.885.

Q: And the relative viability (CAP-232 + Trametinib; first compound 0.4 µM)?
A: Its relative viability is 0.358.

Q: And the relative viability (CAP-232 + Trametinib; first compound 4 µM)?
A: Its relative viability is 0.314.

Q: And the relative viability (CAP-232 + Trametinib; first compound 12.65 µM)?
A: The relative viability was 0.472.

Q: What about the relative viability (CAP-232 + Palbociclib; first compound 0.4 µM) of the same cell line?
A: Its relative viability is 0.27.

Q: And the relative viability (CAP-232 + Palbociclib; first compound 4 µM)?
A: Its relative viability is 0.293.

Q: What about the relative viability (CAP-232 + Palbociclib; first compound 12.65 µM) of the same cell line?
A: Its relative viability is 0.252.

Q: What about the relative viability (CAP-232 + OSI-027; first compound 0.4 µM) of the same cell line?
A: The relative viability was 0.238.

Q: And the relative viability (CAP-232 + OSI-027; first compound 1.265 µM)?
A: The relative viability was 0.241.

Q: What about the relative viability (CAP-232 + OSI-027; first compound 4 µM) of the same cell line?
A: The relative viability was 0.265.

Q: And the relative viability (CAP-232 + OSI-027; first compound 12.65 µM)?
A: Its relative viability is 0.216.

Q: And the relative viability (CAP-232 + Tozasertib; first compound 0.4 µM)?
A: Its relative viability is 0.35.

Q: And the relative viability (CAP-232 + Tozasertib; first compound 1.265 µM)?
A: Its relative viability is 0.594.

Q: And the relative viability (CAP-232 + Tozasertib; first compound 4 µM)?
A: The relative viability was 0.441.

Q: And the relative viability (CAP-232 + Tozasertib; first compound 12.65 µM)?
A: Its relative viability is 0.4.

Q: And the relative viability (CAP-232 + AZD7762; first compound 0.4 µM)?
A: Its relative viability is 0.618.

Q: What about the relative viability (CAP-232 + AZD7762; first compound 4 µM) of the same cell line?
A: The relative viability was 0.77.

Q: What about the relative viability (CAP-232 + AZD7762; first compound 12.65 µM) of the same cell line?
A: Its relative viability is 0.532.

Q: And the relative viability (CAP-232 + Pemetrexed; first compound 0.4 µM)?
A: Its relative viability is 1.05.

Q: And the relative viability (CAP-232 + Pemetrexed; first compound 4 µM)?
A: The relative viability was 0.92.

Q: And the relative viability (CAP-232 + Pemetrexed; first compound 12.65 µM)?
A: Its relative viability is 0.776.

Q: What about the relative viability (CAP-232 + Decitabine; first compound 0.4 µM) of the same cell line?
A: The relative viability was 0.524.

Q: And the relative viability (CAP-232 + Decitabine; first compound 4 µM)?
A: The relative viability was 0.565.

Q: What about the relative viability (CAP-232 + Decitabine; first compound 12.65 µM) of the same cell line?
A: The relative viability was 0.466.

Q: What about the relative viability (CAP-232 + Vorinostat; first compound 0.4 µM) of the same cell line?
A: Its relative viability is 0.292.

Q: And the relative viability (CAP-232 + Vorinostat; first compound 4 µM)?
A: Its relative viability is 0.453.

Q: What about the relative viability (CAP-232 + Vorinostat; first compound 12.65 µM) of the same cell line?
A: The relative viability was 0.411.

Q: And the relative viability (CAP-232 + Olaparib; first compound 0.4 µM)?
A: Its relative viability is 0.698.

Q: What about the relative viability (CAP-232 + Olaparib; first compound 4 µM) of the same cell line?
A: Its relative viability is 0.664.

Q: What about the relative viability (CAP-232 + Olaparib; first compound 12.65 µM) of the same cell line?
A: The relative viability was 0.644.

— the supplement of paper PMC10307832
